Entries after “also recorded” stand apart in the source; their conditions may differ.
Target: T1, mechanosensitive channel of large conductance (MscL) (Mycobacterium tuberculosis, UniProt P9WJN5)
T1 sequence (P9WJN5 1-151): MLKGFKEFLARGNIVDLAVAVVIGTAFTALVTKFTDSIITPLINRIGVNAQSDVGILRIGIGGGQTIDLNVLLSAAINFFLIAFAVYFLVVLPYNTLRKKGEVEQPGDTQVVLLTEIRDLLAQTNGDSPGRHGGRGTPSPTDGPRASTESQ
Assay: Gas-phase (collision-induced) unfolding IM-MS: stabilisation of MscL by bound phospholipid
Format: binding
Conditions: +12 charge state, versus apo form

Structure (SMILES): CCCCCCCC/C=C\CCCCCCCC(=O)OC[C@H](COP(=O)(O)O[C@H]1C(O)C(O)C(O)[C@@H](OP(=O)(O)O)C1O)OC(=O)CCCCCCC/C=C\CCCCCCCC (stereo partly shown) [PI]
- average stabilisation of MscL by bound phospholipid (resistance to gas-phase unfolding): large increase in stability when binding multiple lipids, greater than all other phospholipids investigated; also recorded: Major cumulative effects on stability

From US20150346214A1, “DETECTION OF MEMBRANE PROTEINS” (priority 2012, published 2015)
